Test results: patent US10632121B2, “Platelet-derived growth factor receptor mutations and compositions and methods relating thereto” (MEMORIAL SLOAN KETTERING CANCER CENTER, priority 2014, dated 2020)
Where “and” joins values, the source holds several entries; their conditions need not be identical. Identical values can stand only once. Entries after “also recorded” stand apart in the source; their conditions may differ.

Legend:
[1] = test system: TS543 GBM cells; experiment: Western blot of pathway signaling, TS543; assay type: cell-based, human; conditions: for PI3K/mTOR pathway inhibition (Western blot): TS543, four hour treatment
Description: (§1) Cell lysates for western blots were harvested in cell lysis buffer (Cell Signaling 9803) supplemented with a protease inhibitor cocktail (Calbiochem cocktail II 524625) and phosphatase inhibitor cocktail (Calbiochem cocktail III 524627). Lysates were sonicated, centrifuged, then quantified (Bio-Rad DC Protein Assay 500-0113, 500-0114, and 500-0115). Samples were normalized to one another, then a reducing loading buffer was added. Samples were run on SDS-PAGE gels and semi-dry transferred to nitrocellulose membranes.
(§2) SAR408 and SAR409 were provided by Sanofi. […] Antibodies for western blots were from Cell Signaling Technology with the following exceptions: actin (Sigma), total PDGFRA (Santa Cruz), and V5 epitope (Invitrogen). Western Blots were performed after four hours of drug treatment unless indicated otherwise. Electroluminescence was used to quantify phosphorylation of Akt and S6 ribosomal protein (FIG. 1B) (Meso Scale Discovery cat # K15100D-1 and cat # K150DGD-1). Cell Proliferation and Viability Assays were performed using a Beckman Coulter Vi-Cell XR Cell Viability Analyzer after five days of drug treatment unless indicated otherwise.

[2] = test system: TS543 GBM cells (PDGFRA amplified); experiment: Cell proliferation and viability (Vi-Cell, trypan blue), TS543; assay type: cell-based, human; conditions: for cell death (% Trypan blue positive cells) / proliferation / growth inhibition: TS543, five day treatment
Description: For growth assays performed on non-adherent cell lines (primary human neurosphere lines and S5472 cells) cells were single cell disassociated with Accumax, then counted using the Beckman Coulter Vi-Cell XR Cell Viability Analyzer. Cells were plated in a 6 cm dish in triplicate for each vehicle or drug sample. After five days in culture, each plate was individually spun down, Accumax disassociated, and counted with the Vi-Cell. The Vi-Cell uses trypan blue-exclusion as a measure for viable cells, trypan blue positive cells were used to calculate the percentage of cell death in each sample. The average and standard error of the mean was graphed using GraphPad Prism 6.
as §2

[3] = biological target: mTOR (Homo sapiens, UniProt P42345); conditions: cited from earlier work
[4] = test system: S5472 GBM cells (PDGFB driven); experiment: Cell proliferation and viability (Vi-Cell, trypan blue), S5472; assay type: cell-based, mouse; conditions: for cell death (% Trypan blue positive cells) / proliferation / growth inhibition: S5472, five day treatment
[5] = test system: H1703 human non-small cell lung cancer cells (PDGFRA amplified); experiment: Cell proliferation and viability (Vi-Cell, trypan blue), H1703; assay type: cell-based; conditions: H1703, five day treatment
Description: Growth assays performed on adherent cell lines were trypsanized, counted, and plated into 6 cm dishes. The next day media was removed, and replaced with reduced serum media (5% FBS) with drug or vehicle in triplicate for each concentration. After five days in culture, cells were analyzed in the same manner as non-adherent lines.
as §2

[6] = test system: H1703 cells; experiment: Western blot of pathway signaling, H1703; assay type: cell-based, human
Description: as §1, §2

[7] = test system: recurrent glioblastoma; experiment: Clinical trial: time to progression and tumor response; assay type: in vivo, human
[8] = Clinical trial: safety, adverse events (CTCAE v4.0)
[9] = biological target: PI3Kα (Homo sapiens, UniProt P42336); conditions: cited from earlier work
Sequence of PI3Kα (P42336 whole entry): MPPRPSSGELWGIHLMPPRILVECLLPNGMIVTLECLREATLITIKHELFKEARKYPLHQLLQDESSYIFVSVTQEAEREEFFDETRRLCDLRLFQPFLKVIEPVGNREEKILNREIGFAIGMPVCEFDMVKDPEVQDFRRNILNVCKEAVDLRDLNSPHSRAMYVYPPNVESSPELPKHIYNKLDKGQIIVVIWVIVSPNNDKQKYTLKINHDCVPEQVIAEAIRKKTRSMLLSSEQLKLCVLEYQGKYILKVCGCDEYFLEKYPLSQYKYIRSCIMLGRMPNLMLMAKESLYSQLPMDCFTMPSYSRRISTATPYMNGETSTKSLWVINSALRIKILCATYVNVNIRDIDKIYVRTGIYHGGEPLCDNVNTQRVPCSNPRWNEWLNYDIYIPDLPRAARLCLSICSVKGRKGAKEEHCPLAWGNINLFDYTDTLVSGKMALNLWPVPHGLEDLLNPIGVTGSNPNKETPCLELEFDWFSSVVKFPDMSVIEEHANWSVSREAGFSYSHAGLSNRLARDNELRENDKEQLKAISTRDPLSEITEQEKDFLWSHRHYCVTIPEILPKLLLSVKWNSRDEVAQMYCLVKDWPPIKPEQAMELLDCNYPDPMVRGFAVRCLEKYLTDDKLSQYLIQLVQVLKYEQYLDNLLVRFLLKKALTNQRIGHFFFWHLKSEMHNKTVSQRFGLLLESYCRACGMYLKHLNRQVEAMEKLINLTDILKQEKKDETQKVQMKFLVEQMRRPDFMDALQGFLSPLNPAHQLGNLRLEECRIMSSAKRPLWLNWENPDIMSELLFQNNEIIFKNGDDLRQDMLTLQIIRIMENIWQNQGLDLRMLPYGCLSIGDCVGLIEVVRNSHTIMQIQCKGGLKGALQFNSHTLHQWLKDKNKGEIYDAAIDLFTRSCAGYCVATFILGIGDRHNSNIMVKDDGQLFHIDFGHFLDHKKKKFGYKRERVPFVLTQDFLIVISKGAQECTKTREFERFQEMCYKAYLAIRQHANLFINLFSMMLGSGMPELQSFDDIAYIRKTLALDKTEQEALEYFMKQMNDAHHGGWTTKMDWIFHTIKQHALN
Sequence of PI3Kα (P27986 whole entry partner): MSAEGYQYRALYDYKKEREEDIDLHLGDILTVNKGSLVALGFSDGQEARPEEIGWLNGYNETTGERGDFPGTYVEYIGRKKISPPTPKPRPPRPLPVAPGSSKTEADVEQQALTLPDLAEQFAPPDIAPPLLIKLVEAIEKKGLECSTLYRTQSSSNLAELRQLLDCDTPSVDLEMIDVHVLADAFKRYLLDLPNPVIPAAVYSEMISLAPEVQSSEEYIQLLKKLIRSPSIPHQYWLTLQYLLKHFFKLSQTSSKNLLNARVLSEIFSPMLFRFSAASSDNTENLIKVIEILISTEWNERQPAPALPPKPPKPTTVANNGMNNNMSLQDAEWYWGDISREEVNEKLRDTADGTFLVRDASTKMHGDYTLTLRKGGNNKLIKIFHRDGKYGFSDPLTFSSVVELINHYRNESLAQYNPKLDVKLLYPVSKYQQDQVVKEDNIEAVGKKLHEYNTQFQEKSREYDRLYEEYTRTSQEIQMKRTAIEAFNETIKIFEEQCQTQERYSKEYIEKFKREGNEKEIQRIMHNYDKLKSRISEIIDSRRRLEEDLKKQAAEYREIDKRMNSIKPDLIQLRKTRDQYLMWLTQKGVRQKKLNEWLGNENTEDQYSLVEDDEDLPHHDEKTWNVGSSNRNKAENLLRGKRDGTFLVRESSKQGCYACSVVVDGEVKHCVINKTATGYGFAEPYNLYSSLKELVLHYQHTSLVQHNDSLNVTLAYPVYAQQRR

[10] = test system: panel of 130 other kinases; conditions: Cloughesy et al., 2013; cited from earlier work
[11] = test system: PI3K/mTOR pathway; experiment: Clinical trial: IHC of PI3K/mTOR pathway markers in GBM tumor tissue; assay type: in vivo, human; conditions: patients treated 10-28 days before surgery
Description: To evaluate pharmacodynamic effects in tumor tissue, immuno-histochemistry (IHC) was performed with phosphorylation-site specific antibodies against four PI3K/mTOR pathway components: Proline-Rich Akt Substrate of 40-kDa (PRAS40, threonine246), ribosomal protein S6 kinase 1 (S6K1, threonine 389), eukaryotic translation initiation factor 4E-binding protein 1 (4E-BP1, threonine 37/46), and S6 Ribosomal Protein (S6RP, serine 235/236) (FIG. 1D). For each marker staining of several thousand tumor cells was quantified and the staining intensity in the “on-treatment”-biopsy (Surgery 2) was compared with the staining intensity in the tumor sample collected from the same patient at diagnosis (Surgery 1). This “matched-pair” analysis included 19/21 evaluable patients (Table 3) who received at least one dose of study drug, had detectable phospho-S6RP in the pre-treatment sample (Surgery 1), and had tissue of sufficient quality collected on treatment (Surgery 2).
The design of the trial allowed comparison of the initial glioma (Surgery 1) in these patients to the recurrent glioma which was treated with drug before surgical resection (Surgery 2). Immunohistochemical staining (IHC) was performed on the samples and pathway inhibition was measured via pS6 Ser235/6, pS6K1 Thr389, p4E-BP1 Thr37/46, and pPRAS40 Thr246 (FIG. 1E, upper panel). Cellular proliferation was measured via Ki-67 IHC. […]
Immunohistochemical (IHC) staining of patient samples was performed on formalin-fixed paraffin-embedded (FFPE) tumor tissues collected at the initial surgery and recurrent tumor surgery. […] Immunoreactivity was detected using NovaRED Peroxidase Substrate kit (Vector Labs SK-4800) and sections were counterstained with hematoxylin.
To analyze pathway inhibition, three representative tumor images from each slide stained with phospho-proteins were taken, after determining the presence of tumor cells based on hematoxylin staining evaluation. […] The tumor to normal ratio was calculated by dividing the average of the tumor images by the average of the normal tissue image. […]

[12] = biological target: PI3Kδ (Homo sapiens, UniProt O00329); conditions: cited from earlier work
Sequence of PI3Kδ (O00329 whole entry): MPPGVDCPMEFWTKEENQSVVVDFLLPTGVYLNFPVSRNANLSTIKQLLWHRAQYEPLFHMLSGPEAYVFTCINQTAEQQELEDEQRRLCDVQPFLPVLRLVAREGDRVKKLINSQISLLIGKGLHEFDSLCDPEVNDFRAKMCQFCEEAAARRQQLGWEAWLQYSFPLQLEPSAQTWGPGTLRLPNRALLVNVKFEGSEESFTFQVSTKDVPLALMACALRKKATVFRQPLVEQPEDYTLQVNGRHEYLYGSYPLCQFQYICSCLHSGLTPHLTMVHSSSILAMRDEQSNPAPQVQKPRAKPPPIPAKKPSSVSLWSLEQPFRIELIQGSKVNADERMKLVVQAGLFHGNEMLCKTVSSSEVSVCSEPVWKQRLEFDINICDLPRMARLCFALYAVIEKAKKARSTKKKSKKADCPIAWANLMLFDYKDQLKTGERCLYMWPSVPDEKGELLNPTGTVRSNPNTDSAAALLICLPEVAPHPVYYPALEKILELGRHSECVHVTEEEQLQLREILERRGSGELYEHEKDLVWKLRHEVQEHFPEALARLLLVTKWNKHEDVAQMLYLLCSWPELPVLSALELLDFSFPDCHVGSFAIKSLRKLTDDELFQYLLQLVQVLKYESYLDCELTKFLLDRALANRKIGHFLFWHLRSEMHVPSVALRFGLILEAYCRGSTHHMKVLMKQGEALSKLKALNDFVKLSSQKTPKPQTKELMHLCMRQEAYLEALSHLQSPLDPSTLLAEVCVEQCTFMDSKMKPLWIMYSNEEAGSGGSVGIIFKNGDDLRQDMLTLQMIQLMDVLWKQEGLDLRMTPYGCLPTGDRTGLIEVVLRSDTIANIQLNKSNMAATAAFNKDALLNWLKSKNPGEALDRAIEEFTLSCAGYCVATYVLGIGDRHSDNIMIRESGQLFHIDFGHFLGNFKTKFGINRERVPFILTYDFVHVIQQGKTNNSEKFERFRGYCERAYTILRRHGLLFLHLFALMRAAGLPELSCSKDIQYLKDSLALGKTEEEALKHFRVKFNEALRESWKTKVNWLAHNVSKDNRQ
Sequence of PI3Kδ (P27986 whole entry partner): as the sequence (P27986 whole entry partner) above

[13] = Clinical trial: primary reason for discontinuation from study treatment; assay type: in vivo, human; conditions: SAR408 200 mg once daily (N = 6)
Excerpt: All 21 patients discontinued treatment prior to receiving 1 year of postsurgery treatment. Time to tumor progression (TTP) for all patients is presented FIG. 2A.

[14] = biological target: PI3Kβ (Homo sapiens, UniProt P42338); conditions: cited from earlier work
Sequence of PI3Kβ (P42338 whole entry): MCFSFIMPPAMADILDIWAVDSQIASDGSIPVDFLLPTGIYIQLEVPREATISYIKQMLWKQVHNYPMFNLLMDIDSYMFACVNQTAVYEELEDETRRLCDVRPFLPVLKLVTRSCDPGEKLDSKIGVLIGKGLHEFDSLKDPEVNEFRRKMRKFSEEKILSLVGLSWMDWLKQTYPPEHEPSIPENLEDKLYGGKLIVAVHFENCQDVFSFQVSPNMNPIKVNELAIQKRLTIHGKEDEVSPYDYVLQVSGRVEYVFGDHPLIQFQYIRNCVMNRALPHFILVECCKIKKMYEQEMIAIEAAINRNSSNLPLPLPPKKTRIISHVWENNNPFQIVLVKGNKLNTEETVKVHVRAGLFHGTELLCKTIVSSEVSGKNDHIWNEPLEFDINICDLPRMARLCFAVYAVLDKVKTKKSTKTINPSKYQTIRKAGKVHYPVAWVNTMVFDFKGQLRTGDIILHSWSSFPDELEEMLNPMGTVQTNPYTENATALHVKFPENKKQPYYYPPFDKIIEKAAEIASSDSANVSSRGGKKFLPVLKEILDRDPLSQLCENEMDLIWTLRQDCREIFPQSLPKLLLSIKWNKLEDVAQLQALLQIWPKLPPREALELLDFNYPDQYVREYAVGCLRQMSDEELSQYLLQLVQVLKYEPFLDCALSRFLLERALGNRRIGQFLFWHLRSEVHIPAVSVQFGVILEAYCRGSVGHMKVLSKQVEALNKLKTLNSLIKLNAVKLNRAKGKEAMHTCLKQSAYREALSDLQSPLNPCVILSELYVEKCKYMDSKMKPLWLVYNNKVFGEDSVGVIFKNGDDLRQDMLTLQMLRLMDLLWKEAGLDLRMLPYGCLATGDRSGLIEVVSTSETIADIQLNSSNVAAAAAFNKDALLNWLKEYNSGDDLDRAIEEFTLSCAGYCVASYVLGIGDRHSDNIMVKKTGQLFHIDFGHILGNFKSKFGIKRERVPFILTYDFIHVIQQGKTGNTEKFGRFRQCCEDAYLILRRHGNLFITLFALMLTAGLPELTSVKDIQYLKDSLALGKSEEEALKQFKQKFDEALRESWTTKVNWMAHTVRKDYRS
Sequence of PI3Kβ (P27986 whole entry partner): as the sequence (P27986 whole entry partner) above

[15] = test system: glioblastoma tumor cells; experiment: Clinical trial: Ki-67 IHC tumor cell proliferation; assay type: in vivo, human
Description: The design of the trial allowed comparison of the initial glioma (Surgery 1) in these patients to the recurrent glioma which was treated with drug before surgical resection (Surgery 2). Immunohistochemical staining (IHC) was performed on the samples and pathway inhibition was measured via pS6 Ser235/6, pS6K1 Thr389, p4E-BP1 Thr37/46, and pPRAS40 Thr246 (FIG. 1E, upper panel). Cellular proliferation was measured via Ki-67 IHC. These IHC measurements were compared to one another and reported as a percentage decrease or increase of Surgery2/Surgery 1. Samples which had reduction of all four phospho-protein measurements in Surgery 2 also had the greatest relative decreases in cellular proliferation (FIG. 1E, lower panel). Samples which had no inhibition of any pharmacodynamic biomarker or inhibition of only one pharmacodynamic biomarker were most likely to see a relative increase in proliferation.
To compare the relative change in cellular proliferation in the three drug arms and a drug naïve population, a control population was formed of patients who had not been treated with any PI3K inhibitor and surgical samples available from two surgical resections and compared their relative proliferation via Ki-67 IHC (FIG. 12A). This control group was compared with the three arms of the trial. […] There was no statistically significant change in proliferation between the control group and the other arms of the trial.
To determine the Ki-67 labeling index, slides were analyzed as with the phospho-proteins, and the number of positively stained and total number of cells was determined for each image. The percentage of Ki-67 positive cells was calculated for each image, then the three images were averaged.

[16] = biological target: PI3Kγ (Homo sapiens, UniProt P48736); conditions: cited from earlier work
Sequence of PI3Kγ (P48736 whole entry): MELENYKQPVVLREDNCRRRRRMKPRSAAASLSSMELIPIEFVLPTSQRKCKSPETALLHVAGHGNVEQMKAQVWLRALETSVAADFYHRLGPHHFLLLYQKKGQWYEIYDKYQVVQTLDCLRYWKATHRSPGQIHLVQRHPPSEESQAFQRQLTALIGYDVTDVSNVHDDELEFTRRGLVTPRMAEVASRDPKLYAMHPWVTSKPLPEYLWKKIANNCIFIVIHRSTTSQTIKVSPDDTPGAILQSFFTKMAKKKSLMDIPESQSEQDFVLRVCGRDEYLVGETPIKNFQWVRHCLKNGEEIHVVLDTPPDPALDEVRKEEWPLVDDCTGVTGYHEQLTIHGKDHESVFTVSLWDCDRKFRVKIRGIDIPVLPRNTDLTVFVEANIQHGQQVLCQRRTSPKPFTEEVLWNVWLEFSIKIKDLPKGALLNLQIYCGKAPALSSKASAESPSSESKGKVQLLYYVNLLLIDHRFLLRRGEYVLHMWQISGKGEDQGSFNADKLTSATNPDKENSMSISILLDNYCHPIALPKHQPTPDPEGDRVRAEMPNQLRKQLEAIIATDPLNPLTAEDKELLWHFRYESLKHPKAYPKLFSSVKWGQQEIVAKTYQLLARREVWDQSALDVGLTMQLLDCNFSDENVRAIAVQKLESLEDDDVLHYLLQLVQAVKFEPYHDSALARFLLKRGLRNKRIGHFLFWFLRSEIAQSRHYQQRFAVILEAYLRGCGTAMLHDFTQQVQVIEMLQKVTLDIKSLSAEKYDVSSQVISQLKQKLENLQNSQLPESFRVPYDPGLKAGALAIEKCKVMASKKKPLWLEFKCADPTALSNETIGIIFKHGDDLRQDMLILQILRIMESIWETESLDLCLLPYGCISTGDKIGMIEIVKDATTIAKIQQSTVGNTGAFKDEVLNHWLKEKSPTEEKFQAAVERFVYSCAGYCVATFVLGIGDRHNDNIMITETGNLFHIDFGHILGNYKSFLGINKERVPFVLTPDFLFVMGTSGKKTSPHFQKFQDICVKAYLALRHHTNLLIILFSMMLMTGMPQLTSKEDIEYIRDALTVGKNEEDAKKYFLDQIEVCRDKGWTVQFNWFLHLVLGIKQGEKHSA

[17] = SAR408 200 mg once daily (N = 6)

## Cc1nc(NC(=O)N2CCC[C@H]2C(N)=O)sc1-c1ccnc(C(C)(C)C(F)(F)F)c1 [BYL719]
[1]
  PI3K/mTOR pathway inhibition (Western blot): inhibited
[2]
  cell death (% Trypan blue positive cells): induction of cell death was observed
[3]
  IC50: > 9100 nM

## CS(=O)(=O)N1CCN(Cc2cc3nc(-c4cccc5[nH]ncc45)nc(N4CCOCC4)c3s2)CC1 [GDC-0941]
[1]
  PI3K/mTOR pathway inhibition (Western blot): inhibited
[2]
  cell death (% Trypan blue positive cells): induction of cell death was observed

## Cc1c(CN2CCN(C(=O)[C@H](C)O)CC2)sc2c(N3CCOCC3)nc(-c3cnc(N)nc3)nc12 [GDC-0980]
[4]
  cell death (% Trypan blue positive cells): induction of cell death; also recorded: induced cell death
  proliferation / growth inhibition: inhibition of proliferation
[5]
  cell death (% Trypan blue positive cells): induced dose dependent cell death; also recorded: induction of cell death
  proliferation / growth inhibition: inhibition of proliferation
[2]
  cell death (% Trypan blue positive cells): induced dose dependent cell death; also recorded: induction of cell death
  proliferation / growth inhibition: inhibition of proliferation

## COc1ccc(-c2ccc3c(N4CCOCC4)nc(N4C[C@@H](C)O[C@@H](C)C4)nc3n2)cc1CO [KU-0063794]
[4]
  cell death (% Trypan blue positive cells): no induction of cell death; also recorded: not sufficient to induce cell death
  proliferation / growth inhibition: proliferation arrest; also recorded: markedly impaired tumor cell proliferation
[5]
  cell death (% Trypan blue positive cells): no induction of cell death
  proliferation / growth inhibition: proliferation arrest
[6]; H1703, four hours
  TORC1 signaling (pS6 Ser235/6 and Ser240/4): inhibited
  TORC2 functions (pAkt Ser473): inhibited
[2]
  cell death (% Trypan blue positive cells): no induction of cell death; also recorded: not sufficient to induce cell death
  proliferation / growth inhibition: proliferation arrest; also recorded: markedly impaired tumor cell proliferation

## NC1(c2ccc(-c3nc4ccn5c(=O)[nH]nc5c4cc3-c3ccccc3)cc2)CCC1 [MK-2206]
[4]
  cell death (% Trypan blue positive cells): dose-dependent cell death
[4]; S5472 expressing AKT1 mutated at tryptophan 80
  cell death induction in cells expressing drug-resistant AKT1 allele (W80-AKT1): completely protected
[2]; TS543, MK-2206 combined with 10 nM rapamycin, five days
  cell death induction, combination of Akt and mTOR inhibition: marked increase in cell death induction
[2]
  cell death (% Trypan blue positive cells): dose-dependent cell death

## COc1ccc(Cl)c(Nc2nc3ccccc3nc2NS(=O)(=O)c2cccc(NC(=O)C(C)(C)N)c2)c1 [SAR408, pilaralisib]
[7]; SAR408 200 mg/QD
  TTP (time to progression), individual patients: 6.14 wks (2×) and 18.29 wks and 10.14 wks and 6 wks and 4.57 wks
[7]; SAR245408 arm
  median time to progression: 6.14 weeks
  range of time to progression: 4.57-18.29 weeks
[8]; [17]
  Patients with any Grade 3/4 TEAE: 2 n (%) and 2 (33.3) n (%)
  Patients with any Grade 3/4 treatment-emergent SAE: 1 (16.7) n (%)
  Patients with any TEAE: 6 (100.0) n (%)
  Patients with any TEAE leading to death: 0 n (%)
  Patients with any TEAE leading to dose reduction or interruption: 0 n (%)
  Patients with any TEAE leading to permanent treatment discontinuation: 0 n (%)
  Patients with any related Grade 3/4 TEAE: 0 n (%)
  Patients with any related Grade 3/4 treatment-emergent SAE: 0 n (%)
  Patients with any related TEAE: 3 n (%) and 3 (50.0) n (%)
  Patients with any related treatment-emergent SAE: 0 n (%)
  Patients with any treatment emergent SAE: 1 n (%) and 1 (16.7) n (%)
[8]; SAR408 once daily cohort
  TEAEs of ALT increased, AST increased, blood bilirubin increased or gamma-glutamyltransferase increased: No TEAEs
[8]; all cohorts of the drug pooled
  drug-related TEAE: fatigue: 2 patients
[8]; seventeen patients who resumed drug postoperatively
  tolerability of postoperative treatment: tolerated it well
[9]
  IC50: 48 nM
[10]
  inhibition of a panel of 130 other kinases: do not significantly inhibit
[11]
  PI3K/mTOR pathway inhibition in tumor, Surgery 2 vs Surgery 1: Inhibition of the PI3K/mTOR Pathway
[12]
  IC50: 10 nM
[13]
  Discontinuation: Adverse Event or SAE unrelated to disease progression: 0 n (%)
  Discontinuation: Clinical disease progression per principal investigator: 0 n (%)
  Discontinuation: Disease progression per modified RANO: 6 (100.0) n (%)
[14]
  IC50: 617 nM
[15]; 200 mg/QD SAR245408 arm
  change in proliferation (Ki-67) compared to untreated control population: not significantly different
[15]; patients treated 10-28 days before surgery
  cellular proliferation in tumor, Surgery 2 vs Surgery 1: Reduced Cellular Proliferation
[3]
  IC50: > 15000 nM
[16]
  IC50: 260 nM

## Cc1ccc(NC(=O)c2ccc(CN3CCN(C)CC3)cc2)cc1Nc1nccc(-c2cccnc2)n1 [imatinib]
[4]
  cell death (% Trypan blue positive cells): will die
[6]; H1703, 4 hours
  PDGFRA and downstream signaling (Western blot): robust inhibition of PGDFRA and downstream signaling
[1]; TS543
  PDGFRA and downstream signaling (Western blot): inhibits PDGFRA and downstream signaling
[2]
  cell death (% Trypan blue positive cells): robust induction of cell death
